Data set [1] relates to Lymphocyte. Kind of data set: Cytoprotective activity against human lymphocytes assessed as reduction in sister chromatid exchange frequency after 72 hrs by fluorescence/Geimsa method. It is filed as functional, cell-based.
The test system of data set [2] is Lymphocyte. Kind of data set: Cytoprotective activity against human lymphocytes assessed as reduction in sister chromatid exchange frequency at 10 uM after 72 hrs by fluorescence/Geimsa method. In kind it is functional, cell-based.
Data set [3] is described as follows: Cytogenetic activity against human lymphocytes assessed as cytostatic activity measured as proliferative rate index at 10 uM after 72 hrs by fluorescence/Geimsa method. To be noted: lymphocyte. It is filed as cell-based.

Active and inactive are the calls of the source. The calls are words filed in the database; no cut-off is given here.

For the compound `COC(=O)/C=C1/CC(=O)Nc2cc(C)c(C)cc2N1`, the Activity entry with Lymphocyte [1] is “Dose-dependent effect”.
The same measure, in the same setting: with `COC(=O)/C=C1/CC(=O)Nc2ccccc2N1` the entry was “Dose-dependent effect”.
For the compound `COC(=O)/C=C1/CC(=O)Nc2cc(Cl)ccc2N1`, the Activity entry in the data set on Lymphocyte [1] is “Dose-dependent effect”; in data set [3] it was “Toxic”. Besides, the result with Lymphocyte [2] was Active.

For the origin of these results see ChEMBL document CHEMBL2417523, “One-pot microwave assisted synthesis of new 2-alkoxycarbonylmethylene-4-oxo-1,5-benzo-, naphtho-, and pyridodiazepines and assessment of their cytogenetic activity” (Eur J Med Chem, 2013).
